# In US12115176B2, “Methods and compositions relating to ClbP inhibition” (PRESIDENT AND FELLOWS OF HARVARD COLLEGE, priority 2021, dated 2024):
# “Also recorded” adds a separate entry of the source.
# Experiments:
# Enterococcus faecalis = test: Bacterial MIC assay (broth dilution); format: cell-based; conditions: 15 h, read-out: MICs by compound
# [1] = test system: a variety of bacterial strains from common gut phyla, including E. coli; test: Turbidity MIC assay, all strains together; format: cell-based; conditions: Escherichia coli; all strains tested; upper limit tested 200 μM; read-out: MICs in liquid culture
# Excerpt: Compound 3 is an inhibitor of colibactin-associated genotoxicity. Since colibactin is produced in the context of the gut microbiota, it is essential to understand how 3 can affect other members of this community and whether it remains an effective inhibitor under these conditions. […] A turbidity assay was used to determine minimum inhibitory concentrations (MICs) in liquid culture of 1-4 against a variety of bacterial strains from common gut phyla, including E. coli (Table 3).
# MICs of compounds against different bacterial species were determined using a modified version of a broth microdilution protocol which has been previously reported.^1 Briefly, cultures of each species indicated were inoculated from frozen stocks in deoxygenated Wilkins-Chalgren Anaerobic Medium (WCAM) inside of an anerobic chamber with an 92.5% N2/5% CO2/2.5% H2 atmosphere. Cultures were grown for 24-48 hours in a 37° C. incubator at which point an OD600-measurement was taken for each culture and was accordingly diluted in fresh WCAM to an equivalent of OD600=0.01. Diluted cultures were then distributed into the wells of a clear, flat-bottom 384-well plate and the compound of interest was added to a final DMSO concentration of 2% (or DMSO only for positive controls). […] mineral oil (Millipore Sigma) was deposited on top of the cultures and plates were covered with a clear adhesive plate seal. Plates were incubated at 37° C. for 16 hours, at which point the OD600 of all wells was recorded on a SpectraMax M2 plate reader (Molecular Devices).
# [2] = test system: HeLa cells infected with NC101; test: HeLa infection assay with pks+ E. coli, cell cycle analysis by flow cytometry; format: cell-based, human
# Procedure: Infection with pks^+ E. coli. Assays for cell-cycle arrest and FANCD2 ubiquitination were performed by seeding 24-well plates with 125,000 HeLa cells per well and incubating those plates under standard conditions for 24 hours. At the same time, cultures of NC101 and NC101ΔclbP were started from frozen stocks in LB broth and grown at 37° C. with shaking overnight. […] Cultures were monitored until an OD600 of 0.3-0.5 was reached. At that point, samples of the cultures were removed and DMSO stock solutions of the inhibitor of interest were added to each sample to a final concentration of 1% DMSO and the concentration of inhibitor indicated.
# Media in the 24-well plate was aspirated, HeLa cells were washed with sterile DPBS (Thermo Fisher Scientific), and fresh DMEM+FBS+1% DMSO with the indicated concentration of inhibitor was added. A volume of E. coli equivalent to 2.5×10^7 bacteria based on OD in DMEM+FBS+1% DMSO with the indicated concentration of inhibitor was then added directly to wells (Multiplicity of Infection, MOI 1:100). Infections were carried out for 4 hours at 37° C. in a humidified 5% CO2 incubator. Media was then aspirated and cells were washed with DPBS twice to remove bacteria, and fresh DMEM+FBS+PSF supplemented with 50 μg/mL gentamicin was added.
# Cell Cycle Analysis. Between 20 and 24 hours after infection, HeLa cells were trypsinized (0.25% Trypsin-EDTA, Gibco), washed with DPBS, and fixed in cold 70% ethanol and stored at 4° C. until flow cytometry analysis (24-48 hours). Cells were centrifuged at 800×g for 10 minutes and 70% ethanol was aspirated. Cells were resuspended in DPBS for 15 minutes, then centrifuged and supernatant aspirated again. Cells were then resuspended in DPBS with 0.2 mg/mL RNAse A (Invitrogen) and 0.02 mg/mL propidium iodide (Millipore Sigma). After 30 minutes, cells were analyzed on a BD LSR II Analyzer at the Harvard University Bauer Core Flow Cytometry Facility. For each replicate, 10,000 events were collected and results were gated for single cells and plotted using the FloJo™ software package.
# [3] = test system: E. coli NC101 with mouse fecal community; test: ClbP inhibition in a microbial community; format: cell-based; conditions: E. coli NC101 plus C57BL/6J mouse fecal community, anaerobic, 1 μM 3, LC-MS
# Procedure: ClbP inhibition in a microbial community. Mouse pellets were aseptically collected from cages and immediately stored at −80° C. until use. One 5 mL starter culture each of E. coli NC101 and E. coli NC101ΔclbP was started from frozen stocks in deoxygenated Brain-Heart Infusion media (BHI) inside an anaerobic chamber under a 95% N215% H2 atmosphere and incubated at 37° C. overnight. Mouse fecal pellets were defrosted in the anaerobic chamber and resuspended in BHI with 10 mL media/100 mg pellet mass. The fecal slurry was then centrifuged at 1000×g for 5 minutes to separate solids and the resulting supernatant was used as the media for all “+ community” conditions. Cultures were incubated in 500 μL volumes in triplicate in a deep-well plate under anaerobic conditions, with a 1:100 inoculum of the appropriate E. coli overnight for the “+E. coli” conditions. All samples contained a final concentration of 1% DMSO, with or without 1 μM inhibitor 3. After 20 hours at 37° C., samples were processed, and the concentration of N-myristoyl-D-asparagine quantified via LC-MS/MS as described above.
# E. coli BW25113 BACpks = test: Metabolomics (LC-MS, XCMS); format: cell-based; conditions: BW pks (and NC101), 1 μM 3 versus DMSO
# Procedure: Metabolomics. One 5 mL starter culture each of E. coli BW25113 BACpks and E. coli BW25113 BACpksΔclbP was inoculated from frozen stocks and grown overnight at 37° C. in LB medium supplemented with 35 μg/ml chloramphenicol (LB+cam). Overnights were diluted 1:1000 in fresh LB+cam+1% DMSO with or without 1 μM inhibitor 3 in 5 replicates for each condition and grown for 20 hours at 37° C. A 500 μL aliquot was taken from each replicate, flash frozen in liquid nitrogen and lyophilized to dryness. Lyophilized pellets were extracted with 500 μL LC-MS grade methanol and prepared in the same manner as described above for metabolomics. Samples were analyzed by LC-MS on an Agilent Technologies 1200 series LC with a Phenomenex Luna C18 column (5 μm, 100 Å, 250×4.6 mm) coupled to an Agilent 6530 Quadrupole-Time of Flight mass spectrometer. The following chromatography conditions were used: 99% Solvent A in Solvent B for 1.5 minutes, linear gradient to 0% Solvent A in Solvent B over 43.5 minutes, 0% Solvent A for 8 minutes, linear gradient back to 99% Solvent A over 1 minute, equilibration in 99% solvent A for 9 minutes at flow rate of 0.4 mL/min and a 10 uL injection volume. Solvent A is water with 0.1% formic acid, solvent B is acetonitrile with 0.1% formic acid. […]
smiles,measurement,setting,value
CC1(C)OB([C@@H](CC(N)=O)NC(=O)CCCc2ccccc2)OC1(C)C [Compound 3],MIC,Enterococcus faecalis,> 200 µM
same,MIC,[1],> 200 µM
same,concentration that completely blocks G2/M phase cell cycle arrest,"[2]; HeLa and NC101, inhibitor in the infection medium, FIG. 12A",≤ 100 nM
same,concentration that completely blocks G2/M phase cell cycle arrest,"[2]; HeLa and pks+ E. coli, 1-hour preincubation of inhibitor with E. coli, FIG. 4",≤ 5 nM
same,cell cycle arrest phenotype of colibactin genotoxicity,"[2]; HeLa cells infected with NC101, propidium iodide flow cytometry",can block the cell cycle arrest phenotype; also recorded: prevents cell cycle arrest
same,IC50,"[2]; Homo sapiens, HeLa cells infected with pks+ E. coli, FIG. 4, read-out: apparent IC50 for inhibition of G2/M-phase arrest",~10 nM
same,production of prodrug scaffold in a complex microbial community,[3],reduce the release of N-myristoyl-Asn; also recorded: fully suppressed production of the prodrug scaffold; also recorded: can selectively block colibactin biosynthesis; also recorded: can still effectively block colibactin production
same,changes in metabolites versus clbP deletion,E. coli BW25113 BACpks,resulted in the same changes in metabolites as genetic deletion of clbP
